# Results from patent publication US20250177566A1, “USE OF CHEMICAL EPIGENETIC MODIFIERS TO MODULATE GENE EXPRESSION” (The University of North Carolina at Chapel Hill, priority 2022, published 2025).
# What was measured:
# CXCR4 protein = experiment: CXCR4 cell membrane protein expression in HCT116 (APC anti-CXCR4 antibody, flow cytometry); assay type: cell-based, human; details: for fold change, CXCR4 protein (CXCR4 gRNA vs NT gRNA): FIG. 3E, 7B-7D
# Protocol: In addition, the change in CXCR4 protein expression was evaluated following CEM207 treatment at three different concentrations. CEM207 was chosen over CEM203 because of the lower concentration needed to reach a similar peak CXCR4 mRNA activation level. An APC anti-CXCR4 antibody was used to assess cell membrane CXCR4 protein expression via flow cytometry in dCas9 and MS2-FKBP*x2 stably infected HCT116 cells (FIG. 3E and FIGS. 7B-7D). CXCR4 protein levels were determined at 24, 48, and 72 hrs time points for each of the different concentrations of CEM207. […] Based on this protein expression data, it was concluded that the SLF*-CEMa technology can achieve effective gene-specific, dose-dependent activation at the mRNA and protein level.
# HEK293T cells = experiment: alamarBlue cell viability assay, HEK293T; assay type: cell-based, human
# Protocol: FIGS. 8A-8B show alamarBlue cell viability assays. HEK293T or HCT116 cells were plated in 96-well plates 24 hrs before chemical treatment of 0.001, 0.01, 0.1, 1, 10, 50, and 100 μM CEM207 was added. Another group of cells were treated with all concentrations of CEM207 mentioned above along with 200 nM CEM87 in all samples. After 4 days of chemical exposure, cell growth was measured by fluorescence. […] HCT116 cells were stably infected with dCas9 and MS2-FKBP*x2 constructs and transfected with CXCR4 gRNA. After 24 hrs of 25 nM CEM207 treatment, ChIP-qPCR was performed at different base pair distances from the transcription start site of CXCR4 gene. […] Error bars represent the standard deviation.
# AlamarBlue cell viability assay. HEK293T or HCT116 cells were placed in black 96-well plates with clear bottom. 24 hrs later, media was exchanged to include 0.001, 0.01, 0.1, 1, 10, 50, 100 μM concentrations of CEM207, or all CEM207 concentrations above along with 200 nM CEM87. After 4 days of chemical exposure, alamarBlue Cell Viability Reagent (Invitrogen, DAL1025) was added to each well. Cells were incubated at 37° C. for 4 hrs and fluorescence was read using the TECAN Infinite F200 Fluorescence Microplate Reader. IC50 values were calculated using GraphPad Prism 9.
structure (smiles),measurement,setting,value
"CC[C@H](C(=O)N1CCCC[C@H]1C(=O)O[C@H](CCc1ccc(OC)c(OC)c1)c1cccc(OCC(=O)NCCOCCOCCNC(=O)C[C@@H]2N=C(c3ccc(Cl)cc3)c3c(sc(C)c3C)-n3c(C)nnc32)c1)c1cc(OC)c(OC)c(OC)c1 [CEM207, (R)-1-(3-((14-((S)-4-(4-Chlorophenyl)-2,3,9-trimethyl-6H-thieno[3,2-f][1,2,4]triazolo[4,3-a][1,4]diazepin-6-yl)-2,13-dioxo-6,9-dioxa-3,12-diazatetradecyl)oxy)phenyl)-3-(3,4-dimethoxyphenyl) propyl(S)-1-((S)-2-(3,4,5-trimethoxyphenyl)butanoyl) piperidine-2-carboxylate]",time after CEM treatment of highest CXCR4 protein expression,"CXCR4 protein; 24, 48, 72 hrs time points",48 h
same,"fold change, CXCR4 protein (CXCR4 gRNA vs NT gRNA)","CXCR4 protein; 24 h time point, 5 nM",2.4 fold
same,"fold change, CXCR4 protein (CXCR4 gRNA vs NT gRNA)","CXCR4 protein; 24 h time point, 25 nM",4.6 fold
same,"fold change, CXCR4 protein (CXCR4 gRNA vs NT gRNA)","CXCR4 protein; 24 h time point, 50 nM",4.3 fold
same,"fold change, CXCR4 protein (CXCR4 gRNA vs NT gRNA)","CXCR4 protein; 48 h time point, 5 nM",2.4 fold
same,"fold change, CXCR4 protein (CXCR4 gRNA vs NT gRNA)","CXCR4 protein; 48 h time point, 25 nM",4.9 fold
same,"fold change, CXCR4 protein (CXCR4 gRNA vs NT gRNA)","CXCR4 protein; 48 h time point, 50 nM",5.8 fold
same,"fold change, CXCR4 protein (CXCR4 gRNA vs NT gRNA)","CXCR4 protein; 72 h time point, 5 nM",1.7 fold
same,"fold change, CXCR4 protein (CXCR4 gRNA vs NT gRNA)","CXCR4 protein; 72 h time point, 25 nM",4.2 fold
same,"fold change, CXCR4 protein (CXCR4 gRNA vs NT gRNA)","CXCR4 protein; 72 h time point, 50 nM",3.8 fold
same,concentration of maximum CXCR4 cell membrane protein expression,CXCR4 protein; remained the same at 50 nM,25 nM
same,IC50,"HEK293T cells; CEM207 treatment alone, 4 days of exposure",106 nM
same,IC50,"HEK293T cells; treated simultaneously with 200 nM CEM87, 4 days of exposure",78.6 nM
